Assay: xn = mol fraction of the nth substance listed
Conditions: Liquid, Vibrating tube method, x1 = 1

CCCCCCCCCC [decane] + CCCCCCCCCCCC
Conditions	mass density [kg/m3]
283.55 K, 5000 kPa	742
283.56 K, 3000 kPa	740
283.56 K, 20000 kPa	752
283.56 K, 30000 kPa	758
283.56 K, 40000 kPa	763
283.56 K, 50000 kPa	769
283.56 K, 60000 kPa	774
283.56 K, 70000 kPa	779
283.56 K, 80000 kPa	783
283.56 K, 90000 kPa	788
283.57 K, 1000 kPa	739
283.57 K, 10000 kPa	745
283.58 K, 100 kPa	738
293.48 K, 100 kPa	731
293.48 K, 1000 kPa	731
293.49 K, 5000 kPa	734
293.49 K, 10000 kPa	738
293.49 K, 20000 kPa	745
293.5 K, 30000 kPa	751
293.5 K, 40000 kPa	757
293.5 K, 50000 kPa	763
293.5 K, 100000 kPa	787
293.51 K, 60000 kPa	768
293.51 K, 70000 kPa	773
293.51 K, 80000 kPa	778
293.51 K, 90000 kPa	783
303.42 K, 100 kPa	723
303.42 K, 1000 kPa	724
303.42 K, 10000 kPa	731
303.42 K, 30000 kPa	745
303.42 K, 40000 kPa	751
303.42 K, 70000 kPa	768
303.42 K, 80010 kPa	773
303.42 K, 90000 kPa	777
303.43 K, 5000 kPa	727
303.43 K, 20000 kPa	738
303.43 K, 50000 kPa	757
303.43 K, 60000 kPa	762
303.43 K, 100000 kPa	782
313.35 K, 100 kPa	716
313.35 K, 1000 kPa	717
313.35 K, 5000 kPa	721
313.35 K, 40000 kPa	746
313.36 K, 20000 kPa	732
313.36 K, 50000 kPa	752
313.36 K, 70000 kPa	763
313.36 K, 80000 kPa	768
313.36 K, 90000 kPa	773
313.36 K, 100000 kPa	777
313.37 K, 10000 kPa	725
313.37 K, 30000 kPa	739
313.37 K, 60000 kPa	757
323.24 K, 100 kPa	708
323.24 K, 1000 kPa	709
323.24 K, 100000 kPa	771
323.25 K, 5000 kPa	712
323.25 K, 10000 kPa	717
323.25 K, 20000 kPa	725
323.25 K, 30000 kPa	732
323.25 K, 40000 kPa	739
323.25 K, 50000 kPa	745
323.25 K, 60000 kPa	751
323.25 K, 70000 kPa	757
323.25 K, 80000 kPa	762
323.25 K, 90000 kPa	767
333.12 K, 5000 kPa	705
333.12 K, 10000 kPa	710
333.12 K, 20000 kPa	718
333.13 K, 100 kPa	700
333.13 K, 1000 kPa	701
333.13 K, 30000 kPa	726
333.13 K, 80000 kPa	757
333.13 K, 90000 kPa	762
333.13 K, 100000 kPa	767
333.14 K, 40000 kPa	733
333.14 K, 50000 kPa	740
333.14 K, 60000 kPa	746
333.14 K, 70000 kPa	751
343.01 K, 100 kPa	693
343.01 K, 1000 kPa	694
343.01 K, 10000 kPa	703
343.01 K, 20000 kPa	712
343.01 K, 30000 kPa	720
343.01 K, 40000 kPa	727
343.01 K, 50000 kPa	734
343.01 K, 60000 kPa	740
343.02 K, 5000 kPa	698
343.02 K, 70000 kPa	746
343.02 K, 80000 kPa	752
343.02 K, 90000 kPa	757
343.02 K, 100000 kPa	762
352.87 K, 100 kPa	686
352.87 K, 1000 kPa	687
352.87 K, 5000 kPa	691
352.88 K, 10000 kPa	696
352.88 K, 20000 kPa	706
352.88 K, 30000 kPa	714
352.88 K, 40000 kPa	722
352.88 K, 50000 kPa	729
352.88 K, 60000 kPa	735
352.89 K, 70000 kPa	741
352.89 K, 80000 kPa	747
352.89 K, 90000 kPa	753
352.89 K, 100000 kPa	758
362.69 K, 100 kPa	677
362.69 K, 1000 kPa	678
362.7 K, 5000 kPa	683
362.7 K, 10000 kPa	689
362.71 K, 20000 kPa	699
362.71 K, 30000 kPa	708
362.71 K, 40000 kPa	716
362.71 K, 50000 kPa	723
362.71 K, 60000 kPa	730
362.72 K, 70000 kPa	736
362.72 K, 80000 kPa	742
362.72 K, 90000 kPa	747
362.72 K, 100000 kPa	753

From the NIST ThermoML archive (doi:10.1016/j.fluid.2017.12.010)
